Results from US20250129062A1, “AMORPHOUS SUBSTANCES, CRYSTALS, PHARMACEUTICAL COMPOSITIONS, PREPARATION METHODS AND USES OF THIOHYDANTOIN COMPOUND OR PHARMACEUTICALLY ACCEPTABLE SALT THEREOF” (SUZHOU KINTOR PHARMACEUTICALS, INC., priority 2021, published 2025).
In brackets after ≈: the same amount, converted by molar mass. Where two headings read alike, the source gives them in different places.

Test: Solubility of amorphous substance in solvent systems (supersaturated solution, oscillated 24 h at room temperature, HPLC)
Type: physicochemical
Conditions: for solubility at 24 h: thermodynamic from solid
Protocol: The amorphous substance of the compound of formula I was prepared into supersaturated solutions with different solvents, and oscillated under a room temperature condition (a constant temperature). After oscillating for 24 h, sampling was performed, and the content of the sample was detected by HPLC under condition 1.
Condition 1: • Chromatographic column: C18 (150 mm×4.6 mm×3.5 μm); • Mobile phase: binary mobile phase system, mobile phase A was 0.1% formic acid in water, mobile phase B was acetonitrile; • Elution time: 68 min; • Elution mode: gradient elution (in the gradient elution process, mobile phase A had the maximum volume percentage of 95% and the minimum volume percentage of 10%); • Detection wavelength: 270 nm.

## Cc1ncsc1-c1ccc(CNC(=O)[C@@H]2C[C@@H](O)CN2C(=O)[C@@H](NC(=O)COCCCCOc2ccc(-c3ccc(N4C(=S)N(c5ccc(C#N)c(C(F)(F)F)c5F)C(=O)C4(C)C)cn3)cc2)C(C)(C)C)cc1
Dehydrated alcohol 35%-propylene glycol 45%-water 20% (w/w)
  Solubility: >154310 µg/mL
Dehydrated alcohol 40%-propylene glycol 50%-water 10% (w/w)
  Solubility: >64560 µg/mL
Dehydrated alcohol 10%-propylene glycol 20%-water 70% (w/w), aqueous with cosolvent or surfactant or cyclodextrin, Dehydrated alcohol 10%-propylene glycol 20%-water 70% (w/w), read-out: Solubility
  solubility at 24 h: 30 µg/mL (≈ 0.0288 mM)
Dehydrated alcohol 10%-propylene glycol 30%-water 60% (w/w), aqueous with cosolvent or surfactant or cyclodextrin, Dehydrated alcohol 10%-propylene glycol 30%-water 60% (w/w), read-out: Solubility
  solubility at 24 h: 450 µg/mL (≈ 0.431 mM)
Dehydrated alcohol 10%: water 90% (w/w), aqueous with cosolvent or surfactant or cyclodextrin, Dehydrated alcohol 10%: water 90% (w/w), read-out: 24 h solubility
  solubility at 24 h: 140 µg/mL (≈ 0.134 mM)
Dehydrated alcohol 20%-propylene glycol 20%-water 60% (w/w), aqueous with cosolvent or surfactant or cyclodextrin, Dehydrated alcohol 20%-propylene glycol 20%-water 60% (w/w), read-out: Solubility
  solubility at 24 h: 80 µg/mL (≈ 0.0767 mM)
Dehydrated alcohol 20%-propylene glycol 30%-water 50% (w/w), aqueous with cosolvent or surfactant or cyclodextrin, Dehydrated alcohol 20%-propylene glycol 30%-water 50% (w/w), read-out: Solubility
  solubility at 24 h: 440 µg/mL (≈ 0.422 mM)
Dehydrated alcohol 20%-propylene glycol 40%-water 40% (w/w), aqueous with cosolvent or surfactant or cyclodextrin, Dehydrated alcohol 20%-propylene glycol 40%-water 40% (w/w), read-out: Solubility
  solubility at 24 h: 3790 µg/mL (≈ 3.63 mM)
Dehydrated alcohol 20%-propylene glycol 50%-water 30% (w/w), aqueous with cosolvent or surfactant or cyclodextrin, Dehydrated alcohol 20%-propylene glycol 50%-water 30% (w/w), read-out: Solubility
  solubility at 24 h: 12600 µg/mL (≈ 12.1 mM)
Dehydrated alcohol 20%: water 80% (w/w), aqueous with cosolvent or surfactant or cyclodextrin, Dehydrated alcohol 20%: water 80% (w/w), read-out: 24 h solubility
  solubility at 24 h: 140 µg/mL (≈ 0.134 mM)
Dehydrated alcohol 30%: water 70% (w/w), aqueous with cosolvent or surfactant or cyclodextrin, Dehydrated alcohol 30%: water 70% (w/w), read-out: 24 h solubility
  solubility at 24 h: 110 µg/mL (≈ 0.105 mM)
Dehydrated alcohol 35%-propylene glycol 45%-water 20% (w/w), aqueous with cosolvent or surfactant or cyclodextrin, Dehydrated alcohol 35%-propylene glycol 45%-water 20% (w/w), read-out: Solubility
  solubility at 24 h: > 154000 µg/mL
Dehydrated alcohol 40%-propylene glycol 50%-water 10% (w/w), aqueous with cosolvent or surfactant or cyclodextrin, Dehydrated alcohol 40%-propylene glycol 50%-water 10% (w/w), read-out: Solubility
  solubility at 24 h: > 64600 µg/mL
Dehydrated alcohol 40%: water 60% (w/w), aqueous with cosolvent or surfactant or cyclodextrin, Dehydrated alcohol 40%: water 60% (w/w), read-out: 24 h solubility
  solubility at 24 h: 510 µg/mL (≈ 0.489 mM)
Dehydrated alcohol 60%: water 40% (w/w), organic solvent or mixture, Dehydrated alcohol 60%: water 40% (w/w), read-out: 24 h solubility
  solubility at 24 h: 26000 µg/mL (≈ 24.9 mM)
Dehydrated alcohol 70%: water 30% (w/w), organic solvent or mixture, Dehydrated alcohol 70%: water 30% (w/w), read-out: 24 h solubility
  solubility at 24 h: > 34900 µg/mL
Dehydrated alcohol 80%: water 20% (w/w), organic solvent or mixture, Dehydrated alcohol 80%: water 20% (w/w), read-out: 24 h solubility
  solubility at 24 h: > 42100 µg/mL
Dehydrated alcohol 90%: water 10% (w/w), organic solvent or mixture, Dehydrated alcohol 90%: water 10% (w/w), read-out: 24 h solubility
  solubility at 24 h: > 77700 µg/mL
Dehydrated alcohol, organic solvent or mixture, solvent: Dehydrated alcohol, read-out: 24 h solubility
  solubility at 24 h: > 54000 µg/mL
Dehydrated alcohol-PEG400-water solvent mixture, aqueous with cosolvent or surfactant or cyclodextrin, Dehydrated alcohol 10%-PEG400 10%-water 80% (w/w), read-out: Solubility
  solubility at 24 h: 10 µg/mL (≈ 0.00959 mM)
Dehydrated alcohol-PEG400-water solvent mixture, aqueous with cosolvent or surfactant or cyclodextrin, Dehydrated alcohol 10%-PEG400 20%-water 70% (w/w), read-out: Solubility
  solubility at 24 h: 20 µg/mL (≈ 0.0192 mM)
Dehydrated alcohol-PEG400-water solvent mixture, aqueous with cosolvent or surfactant or cyclodextrin, Dehydrated alcohol 20%-PEG400 20%-water 60% (w/w), read-out: Solubility
  solubility at 24 h: 160 µg/mL (≈ 0.153 mM)
Dehydrated alcohol-PEG400-water solvent mixture, aqueous with cosolvent or surfactant or cyclodextrin, Dehydrated alcohol 20%-PEG400 30%-water 50% (w/w), read-out: Solubility
  solubility at 24 h: 910 µg/mL (≈ 0.872 mM)
Dehydrated alcohol-PEG400-water solvent mixture, aqueous with cosolvent or surfactant or cyclodextrin, Dehydrated alcohol 20%-PEG400 40%-water 40% (w/w), read-out: Solubility
  solubility at 24 h: 7900 µg/mL (≈ 7.57 mM)
Dehydrated alcohol-PEG400-water solvent mixture, aqueous with cosolvent or surfactant or cyclodextrin, Dehydrated alcohol 30%-PEG400 10%-water 60% (w/w), read-out: Solubility
  solubility at 24 h: 310 µg/mL (≈ 0.297 mM)
Dehydrated alcohol-PEG400-water solvent mixture, aqueous with cosolvent or surfactant or cyclodextrin, Dehydrated alcohol 30%-PEG400 20%-water 50% (w/w), read-out: Solubility
  solubility at 24 h: 1950 µg/mL (≈ 1.87 mM)
Dehydrated alcohol-PEG400-water solvent mixture, aqueous with cosolvent or surfactant or cyclodextrin, Dehydrated alcohol 30%-PEG400 30%-water 40% (w/w), read-out: Solubility
  solubility at 24 h: 11600 µg/mL (≈ 11.1 mM)
Dehydrated alcohol-PEG400-water solvent mixture, aqueous with cosolvent or surfactant or cyclodextrin, Dehydrated alcohol 30%-PEG400 40%-water 30% (w/w), read-out: Solubility
  solubility at 24 h: 89200 µg/mL (≈ 85.5 mM)
Dehydrated alcohol-PEG400-water solvent mixture, aqueous with cosolvent or surfactant or cyclodextrin, Dehydrated alcohol 35%-PEG400 30%-water 35% (w/w), read-out: Solubility
  solubility at 24 h: 35700 µg/mL (≈ 34.2 mM)
Dehydrated alcohol-PEG400-water solvent mixture, aqueous with cosolvent or surfactant or cyclodextrin, Dehydrated alcohol 35%-PEG400 35%-water 30% (w/w), read-out: Solubility
  solubility at 24 h: 117000 µg/mL (≈ 112 mM)
Dehydrated alcohol-PEG400-water solvent mixture, aqueous with cosolvent or surfactant or cyclodextrin, Dehydrated alcohol 35%-PEG400 40%-water 25% (w/w), read-out: Solubility
  solubility at 24 h: > 181000 µg/mL
Dehydrated alcohol-PEG400-water solvent mixture, aqueous with cosolvent or surfactant or cyclodextrin, Dehydrated alcohol 35%-PEG400 45%-water 20% (w/w), read-out: Solubility
  solubility at 24 h: > 258000 µg/mL
Dehydrated alcohol-PEG400-water solvent mixture, aqueous with cosolvent or surfactant or cyclodextrin, Dehydrated alcohol 40%-PEG400 10%-water 50% (w/w), read-out: Solubility
  solubility at 24 h: 3350 µg/mL (≈ 3.21 mM)
Dehydrated alcohol-PEG400-water solvent mixture, aqueous with cosolvent or surfactant or cyclodextrin, Dehydrated alcohol 40%-PEG400 20%-water 40% (w/w), read-out: Solubility
  solubility at 24 h: 17400 µg/mL (≈ 16.7 mM)
Dehydrated alcohol-PEG400-water solvent mixture, aqueous with cosolvent or surfactant or cyclodextrin, Dehydrated alcohol 40%-PEG400 30%-water 30% (w/w), read-out: Solubility
  solubility at 24 h: 111000 µg/mL (≈ 106 mM)
Dehydrated alcohol-PEG400-water solvent mixture, aqueous with cosolvent or surfactant or cyclodextrin, Dehydrated alcohol 40%-PEG400 40%-water 20% (w/w), read-out: Solubility
  solubility at 24 h: > 49100 µg/mL
Dehydrated alcohol-PEG400-water solvent mixture, aqueous with cosolvent or surfactant or cyclodextrin, Dehydrated alcohol 50%-PEG400 30%-water 20% (w/w), read-out: Solubility
  solubility at 24 h: > 49700 µg/mL
Dehydrated alcohol-PEG400-water solvent mixture, aqueous with cosolvent or surfactant or cyclodextrin, Dehydrated alcohol 50%-PEG400 40%-water 10% (w/w), read-out: Solubility
  solubility at 24 h: > 48500 µg/mL
Dehydrated alcohol-propylene glycol-water solvent mixture, aqueous with cosolvent or surfactant or cyclodextrin, Dehydrated alcohol 10%-propylene glycol 40%-water 50% (w/w), read-out: Solubility
  solubility at 24 h: 540 µg/mL (≈ 0.518 mM)
Dehydrated alcohol-propylene glycol-water solvent mixture, aqueous with cosolvent or surfactant or cyclodextrin, Dehydrated alcohol 10%-propylene glycol 50%-water 40% (w/w), read-out: Solubility
  solubility at 24 h: 1490 µg/mL (≈ 1.43 mM)
Dehydrated alcohol-propylene glycol-water solvent mixture, aqueous with cosolvent or surfactant or cyclodextrin, Dehydrated alcohol 20%-propylene glycol 10%-water 70% (w/w), read-out: Solubility
  solubility at 24 h: 40 µg/mL (≈ 0.0383 mM)
Dehydrated alcohol-propylene glycol-water solvent mixture, aqueous with cosolvent or surfactant or cyclodextrin, Dehydrated alcohol 30%-propylene glycol 10%-water 60% (w/w), read-out: Solubility
  solubility at 24 h: 200 µg/mL (≈ 0.192 mM)
Dehydrated alcohol-propylene glycol-water solvent mixture, aqueous with cosolvent or surfactant or cyclodextrin, Dehydrated alcohol 30%-propylene glycol 20%-water 50% (w/w), read-out: Solubility
  solubility at 24 h: 2520 µg/mL (≈ 2.42 mM)
Dehydrated alcohol-propylene glycol-water solvent mixture, aqueous with cosolvent or surfactant or cyclodextrin, Dehydrated alcohol 30%-propylene glycol 30%-water 40% (w/w), read-out: Solubility
  solubility at 24 h: 6390 µg/mL (≈ 6.13 mM)
Dehydrated alcohol-propylene glycol-water solvent mixture, aqueous with cosolvent or surfactant or cyclodextrin, Dehydrated alcohol 30%-propylene glycol 40%-water 30% (w/w), read-out: Solubility
  solubility at 24 h: 25200 µg/mL (≈ 24.2 mM)
Dehydrated alcohol-propylene glycol-water solvent mixture, aqueous with cosolvent or surfactant or cyclodextrin, Dehydrated alcohol 30%-propylene glycol 50%-water 20% (w/w), read-out: Solubility
  solubility at 24 h: > 178000 µg/mL
Dehydrated alcohol-propylene glycol-water solvent mixture, aqueous with cosolvent or surfactant or cyclodextrin, Dehydrated alcohol 35%-propylene glycol 35%-water 30% (w/w), read-out: Solubility
  solubility at 24 h: 52300 µg/mL (≈ 50.1 mM)
Dehydrated alcohol-propylene glycol-water solvent mixture, aqueous with cosolvent or surfactant or cyclodextrin, Dehydrated alcohol 35%-propylene glycol 40%-water 25% (w/w), read-out: Solubility
  solubility at 24 h: 62700 µg/mL (≈ 60.1 mM)
Dehydrated alcohol-propylene glycol-water solvent mixture, aqueous with cosolvent or surfactant or cyclodextrin, Dehydrated alcohol 35%-propylene glycol 50%-water 15% (w/w), read-out: Solubility
  solubility at 24 h: > 189000 µg/mL
